What all share (assay): growth of human tumour cells (NCI), 48 h
The subject of test [1] is HL-60.
In test [2] the test system is BT-549.
Test [3] deals with OVCAR-4.
Test [4] has as its system SW-620.
Test [5] concerns SN12C.
The subject of test [6] is CAKI-1.
Test [7] concerns HCT-116.
The test system of test [8] is SNB-75.
For test [9], the system named is HOP-62.
Test [10] deals with HCT-15.
For test [11], the system named is HCC 2998.
Test [12] relates to MDA-MB-231.
Test [13] relates to UACC-257.
The test system of test [14] is 786-0.
The test system of test [15] is COLO 205.
In test [16] the test system is SR.
Test [17] relates to MDA-N.
Test [18] relates to UO-31.
Test [19] relates to SK-OV-3.
In test [20] the test system is CCRF-CEM.

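Where inhibition never reached the appropriate level, the endpoint shown equals the highest concentration tested. Otherwise, values were interpolated linearly from a five-concentration, 48-hour dose response in 96-well plates. GI50 is the concentration that inhibits growth by half.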 Calls of active or inactive are those of the source. No stated cut-off is given here; in the data, active = GI50 up to about 1.1 µM and inactive = higher.

Experimental findings from ChEMBL document CHEMBL1201862, “PubChem BioAssay data set” (2004) are described below.

In the case of `COc1ccc(CNC2=Nc3ccncc3S(=O)(=O)N2c2ccccc2)cc1`, the GI50 in [1] was 12.8 µM (inactive); in test [2], 23.2 µM (inactive); in [3], 37.4 µM (inactive); in test [4], 33 µM (inactive); in test [5], 80.9 µM (inactive); in test [6] it was > 100 µM (inactive). In addition, the GI50 in test [7] is 36.5 µM (inactive); in test [8], 39.1 µM (inactive); in test [9], > 100 µM (inactive); in test [10] it was 34.3 µM; in test [11] it was 3.77 µM (inactive); in test [12] it was > 100 µM (inactive). Besides, the GI50 in [13] was 37.4 µM (inactive); in test [14], 47.4 µM (inactive); in [15], > 100 µM (inactive); in test [16] it was 23.3 µM (inactive); in test [17], 29.9 µM (inactive); in test [18] it was 45.7 µM (inactive). Also, the GI50 was > 100 µM (inactive) in test [19] and 19.4 µM (inactive) in [20].

As to `Nc1nc(Cl)cc(NCC2CC(O)(CO)C2)n1` (stereo not given), the GI50 in test [1], in test [2], in test [3], in test [4], in test [5] and in test [6] was > 100 µM (inactive) throughout. Further, the GI50 in test [7] is > 100 µM (inactive); in test [8], > 100 µM (inactive); in test [9], > 100 µM (inactive); in [10] it was above 100 µM; in test [11], > 100 µM (inactive); in test [12] it was > 100 µM (inactive). In addition, the GI50 in test [13] is > 100 µM (inactive); in test [14], > 100 µM (inactive); in test [15], > 100 µM (inactive); in test [16], > 10 µM (inactive); in [17], > 100 µM (inactive); in test [18], > 100 µM (inactive). Further, the GI50 in test [19] and in test [20] was > 100 µM (inactive) each time.

Turning to `C=C1C(=O)OC2/C=C(\C)C3OC3/C=C(/C(=O)OC)C(OC(C)=O)C(OC(=O)C(C)(O)C(C)OC(C)=O)C12` (stereo not given), the GI50 in [1] is 0.308 µM (active); in test [2], 1.04 µM (active); in test [3] it was 3.5 µM (inactive); in test [4], 0.796 µM (active); in test [5], 2.67 µM (inactive); in [6], 4.36 µM (inactive). In addition, the GI50 is 1.27 µM (inactive) in test [7]; 2.81 µM (inactive) in test [8]; 20.8 µM (inactive) in test [9]; 6.24 µM in [10]; 3.83 µM (inactive) in [11]; 8.93 µM (inactive) in test [12]. The GI50 in test [13] is 0.679 µM (active); in test [14] it was 2.22 µM (inactive); in [15], 1.29 µM (inactive); in [16] it was 0.652 µM (active); in [17], 2.69 µM (inactive); in [18], 6.52 µM (inactive). Also, the GI50 in [19] was 18.7 µM (inactive); in test [20], 0.305 µM (active).

With `O=[N+]([O-])O` [NITRIC ACID], the GI50 in [1], in test [2], in test [3], in [4], in test [5] and in [6] was > 100 µM (inactive) throughout. The GI50 in [7] is > 100 µM (inactive); in test [8] it was > 100 µM (inactive); in test [9], > 100 µM (inactive); in [10], above 100 µM; in test [11], > 100 µM (inactive); in [12], > 100 µM (inactive). Besides, the GI50 in test [13] is > 100 µM (inactive); in test [14] it was > 100 µM (inactive); in test [15], > 100 µM (inactive); in [16], 77.1 µM (inactive); in test [17], > 100 µM (inactive); in test [18] it was > 100 µM (inactive). Further, the GI50 in test [19] and in [20] was > 100 µM (inactive) throughout.

Consider `NC(Cc1ccc2oc3cc(=O)c4ccccc4c-3nc2c1)C(=O)O` (stereo not given), for which the GI50 was 40.8 µM (inactive) in test [1]; 14.4 µM (inactive) in test [2]; 67.5 µM (inactive) in test [3]; 29.3 µM (inactive) in test [4]; 16.4 µM (inactive) in test [5]; > 79.4 µM (inactive) in test [6]. For the same molecule, the GI50 in [7] was 36 µM (inactive); in test [8] it was 11.2 µM (inactive); in test [9], 25.9 µM (inactive); in test [10], 17.8 µM; in test [11], 16 µM (inactive); in test [12], > 79.6 µM (inactive). The GI50 is 20.5 µM (inactive) in test [13]; 50.2 µM (inactive) in [14]; 6.97 µM (inactive) in test [15]; 16.6 µM (inactive) in test [16]; 6.73 µM (inactive) in [17]; 33.8 µM (inactive) in test [18]. Moreover, the figures for the GI50 in test [19] and in test [20] were > 100 µM (inactive) and 40.7 µM (inactive), respectively.

`O=NN(Cc1ccc(Cl)cc1)C(C(=O)O)c1ccccc1` (stereo not given): the GI50 in [1], in test [2], in test [3], in test [4], in [5] and in test [6] was > 100 µM (inactive) throughout. Further, the GI50 in test [7] was > 100 µM (inactive); in [8], > 100 µM (inactive); in test [9], > 100 µM (inactive); in test [10], above 100 µM; in test [11], 43.9 µM (inactive); in test [12], > 100 µM (inactive). For the same molecule, the GI50 in [13] was 47.2 µM (inactive); in [14] it was > 100 µM (inactive); in test [15] it was > 100 µM (inactive); in test [16], > 100 µM (inactive); in test [17], > 100 µM (inactive); in test [18], > 100 µM (inactive). Further, the GI50 in test [19] and in [20] was > 100 µM (inactive) in each case.

As for `O=C(/C=C/c1ccccc1)C[C@@H](O)C[C@@H]1CC=CC(=O)O1`, the GI50 in test [1] is 2.18 µM (inactive); in test [2], 11.4 µM (inactive); in test [3] it was 15.2 µM (inactive); in test [4], 2.35 µM (inactive); in test [5], 12.5 µM (inactive); in [6] it was 14.2 µM (inactive). Moreover, the GI50 in test [7] is 2.46 µM (inactive); in [8], 16.7 µM (inactive); in [9], 16 µM (inactive); in test [10], 10.2 µM; in test [11], 5.93 µM (inactive); in test [12] it was 14.4 µM (inactive). Further, the GI50 in test [13] was 13.6 µM (inactive); in test [14] it was 3.34 µM (inactive); in test [15] it was 5.5 µM (inactive); in [16], 2.84 µM (inactive); in [17], 4.76 µM (inactive); in [18], 9.18 µM (inactive). For the same molecule, the GI50 is 14.3 µM (inactive) in [19] and 1.85 µM (inactive) in [20].

With `CCOC(=O)C(=CNc1ccc(NC2=NCC(C)S2)cc1)C(=O)OCC` (stereo not given), the GI50 in test [1] was 2.38 µM (inactive); in test [2], 15.2 µM (inactive); in test [3], 9.62 µM (inactive); in [4], 31 µM (inactive); in test [5], 41 µM (inactive); in test [6], 45.3 µM (inactive). For the same molecule, the GI50 is 35.2 µM (inactive) in [7]; 22.1 µM (inactive) in test [8]; 50 µM (inactive) in test [9]; 15.2 µM in [10]; 33.4 µM (inactive) in test [11]; 34.3 µM (inactive) in test [12]. For the same molecule, the GI50 in [13] was 26.5 µM (inactive); in [14], 26.1 µM (inactive); in test [15] it was 35.6 µM (inactive); in [16] it was 22.3 µM (inactive); in [17], 25.7 µM (inactive); in test [18], 17.8 µM (inactive). The GI50 in test [19] is 60 µM (inactive); in test [20], 0.0908 µM (active).

For the molecule `Cc1nc(C)c(N2CCNCC2)c(O)n1`, the GI50 in [1], in test [2], in test [3], in test [4], in test [5] and in [6] was > 100 µM (inactive) each time. Further, the GI50 in test [7] was > 100 µM (inactive); in test [8], > 100 µM (inactive); in test [9] it was > 100 µM (inactive); in test [10] it was above 100 µM; in test [11] it was > 100 µM (inactive); in [12], > 100 µM (inactive). Also, the GI50 in [13], in [14], in test [15], in [16], in [17] and in [18] was > 100 µM (inactive) in each case. Moreover, the GI50 in [19] and in [20] was > 100 µM (inactive) throughout.

For `Cc1cc(C)nc(NS(=O)(=O)c2ccc(NC(=O)c3cccc4c(NNc5ccc(S(=O)(=O)N=C(N)N)cc5)c5ccccc5nc34)cc2)n1`, the GI50 in test [1], in test [2], in [3], in [4], in test [5] and in test [6] was > 50 µM (inactive) each time. Moreover, the GI50 in test [7] is > 50 µM (inactive); in [8] it was 41.9 µM (inactive); in test [9], > 50 µM (inactive); in test [10], above 50 µM; in test [11] it was > 50 µM (inactive); in test [12] it was > 50 µM (inactive). For the same molecule, the GI50 is > 50 µM (inactive) in [13]; > 50 µM (inactive) in [14]; > 50 µM (inactive) in [15]; > 50 µM (inactive) in [16]; > 50 µM (inactive) in test [17]; 48.1 µM (inactive) in test [18]. For the same molecule, the GI50 in test [19] and in [20] was > 50 µM (inactive) each time.
